Marks after values point to notes of the source that are not given here.
How the values were obtained:
[1] = tested on: extracellular concentrations of NA, DA and ACh in the frontal cortex; test: Measurement of neurotransmitters in the frontal cortex of rats (microdialysis, HPLC); assay type: in vivo, rat; conditions: 10.0 mg/kg s.c.; for ACh, percentage area beneath the curve (%AbC ± S.E.M.): acetylcholine in frontal cortex dialysates of conscious rats; for ACh, percentage area beneath the curve (%AbC ± S.E.M.) / DA, percentage area beneath the curve (%AbC ± S.E.M.) / NA, percentage area beneath the curve (%AbC ± S.E.M.): 20 min. to 120 min. after administration; for DA, percentage area beneath the curve (%AbC ± S.E.M.): dopamine in frontal cortex dialysates of conscious rats; for change in extracellular concentration of ACh (in words) / change in extracellular concentration of DA (in words) / change in extracellular concentration of NA (in words): frontal cortex dialysates of conscious rats; for NA, percentage area beneath the curve (%AbC ± S.E.M.): noradrenaline in frontal cortex dialysates of conscious rats
Protocol: Measurement of Neurotransmitters in the Frontal Cortex of Rats
The surgery is performed under pentobarbital-induced anaesthesia (60 mg/kg, i.p.). Male Wistar rats, 200–220 g (Iffa Credo, Arbresle, France), are placed in a Kopf stereotaxic device and a cannula guide (CMAMicrodialyse AB, Stockholm, Sweden) is implanted in the frontal cortex at the coordinates (in mm): anteroposterior: +2.2, lateral: ±0.6, ventral deviation: −0.2. The rats are placed in separate cages and recover from the anaesthesia over 5 days. On the day of the dialysis, a Cuprophan CMA/11 probe (length: 4 mm; ext. dia.: 0.24 mm) is introduced into the guide and perfused at 1 μl/min. with a solution of NaCl: 147.2 mM; KCl: 4 mM; CaCl2: 2.3 mM adjusted to pH 7.3 with a phosphate buffer. Two hours after implantation, samples of dialysate are collected every 20 minutes for 4 hours. Three baseline samples are collected before administration of the drug.
Noradrenaline (NA) and dopamine (DA) are measured as follows: 20 μl of dialysate sample are diluted with 20 μl of mobile phase (NaH2PO4: 75 mM, EDTA: 20 μM, sodium decanesulphonate: 1 mM, methanol: 17.5%, triethylamine: 0.01%, pH: 5.70) and 33 μl are analysed by HPLC using, for separation, an inverse-phase column (Hypersil C 18, 150×4.6 mm; particle size 5 μm) thermostatically controlled at 43° C. and, for quantification, a coulometric detector (ESA5014, Coulochem II, ESA, Chelmsford, USA). The potential of the first electrode is −90 mV (reduction) and that of the second +280 mV (oxidation). The mobile phase flow rate is 2 ml/min. The sensitivity limit for NA and DA is 0.2 pg.
Acetylcholine (ACh) is measured and quantified in the absence of acetylcholine esterase (AChE) inhibitor 20 μl of dialysate sample are collected in 10 μl of 0.01% acetic acid. 20 μl aliquots are analysed by HPLC. The mobile phase is composed of Na2HPO4: 50 mM and ProClin: 0.5% (BAS, Congleton, UK), pH 8.2. The stationary phase is composed of a cation-exchange column (Sepstik, 530×1.0 mm, particle size 10 μm, BAS), a pre-column (choline oxidase/catalase enzymatic reactor, 55×1 mm, BAS) and a post-column (choline oxidase/AChE enzymatic reactor, 50×1 mm, BAS). The system is maintained at 35° C. Quantification is carried out by means of an amperometric detector (LC-4B, BAS). A layer of peroxidase-redox polymer is deposited on the vitreous carbon working electrode (MF2098, BAS). The potential of that electrode is +100 mV relative to the Ag/AgCl reference electrode. The mobile phase flow rate is 0.14 ml/min. The sensitivity limit for ACh is 0.1 pg.
The levels of NA, DA and ACh are expressed as the percentage area beneath the curve (% AbC) ±S.E.M. of times 20 min. to 120 min. after administration of the drug. The effects of the compound of Example 1 are compared (ANOVA) with those obtained in animals treated with the solvent or with 6-chloro-5-fluoro-N-[4-methoxy-3-(4-methyl-1-piperazinyl)phenyl]-1-indoline-carboxamide.

5-HT2C receptors = molecular target: T1, 5-HT2C receptors (Homo sapiens, UniProt P28335); test: Determination of the affinity for 5-HT2C receptors (competition with [3H]-mesulergine); assay type: binding; conditions: 22° C., pH=7.7, IC50 converted into pKi
T1 sequence (P28335 33-458): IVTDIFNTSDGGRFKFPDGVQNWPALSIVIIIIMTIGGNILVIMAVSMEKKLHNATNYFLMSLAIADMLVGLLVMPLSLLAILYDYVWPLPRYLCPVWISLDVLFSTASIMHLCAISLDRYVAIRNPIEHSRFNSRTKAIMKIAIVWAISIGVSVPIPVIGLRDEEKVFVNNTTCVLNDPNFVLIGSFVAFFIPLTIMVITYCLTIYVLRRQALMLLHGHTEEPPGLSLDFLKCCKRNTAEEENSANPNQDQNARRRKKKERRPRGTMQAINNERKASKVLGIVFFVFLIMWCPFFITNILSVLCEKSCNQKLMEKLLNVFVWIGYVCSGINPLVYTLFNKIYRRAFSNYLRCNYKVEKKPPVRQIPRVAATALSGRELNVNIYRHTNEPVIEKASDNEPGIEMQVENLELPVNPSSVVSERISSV
Protocol: The non-specific fraction is defined in the presence of 1 μM mianserin, the latter also being the reference product for each experiment. At the end of the incubation period, the medium is filtered through GF/B-Unifilter filters pre-treated with PEI (0.1%), followed by washing three times with the incubation buffer. The radioactivity retained on the filters is determined by liquid scintillation counting. The binding isotherms are analysed by non-linear regression in order to determine the IC50 values. They are converted into pKi (where Ki is the dissociation constant).

SMILES | ACh, percentage area beneath the curve (%AbC ± S.E.M.) [1] | DA, percentage area beneath the curve (%AbC ± S.E.M.) [1] | change in extracellular concentration of ACh (in words) [1] | change in extracellular concentration of DA (in words) [1] | change in extracellular concentration of NA (in words) [1] | NA, percentage area beneath the curve (%AbC ± S.E.M.) [1] | Ki (5-HT2C receptors) [nM]
COc1ccc(NC(=O)N2CCc3c2ccc2ccccc32)cc1N1CCN(C)CC1.Cl [Example 1, N-[4-Methoxy-3-(4-methyl-1-piperazinyl)phenyl]-1,2-dihydro-3H-benzo[e]indole-3-carboxamide Hydrochloride] | +107.7 ± 13.5^a,b %AbC | +52.9 ± 6.6^a %AbC | substantial increase | substantial increase | substantial increase | +105.4 ± 7.3^a,b %AbC | 6.31
COc1ccc(NC(=O)N2CCc3cc(F)c(Cl)cc32)cc1N1CCN(C)CC1 [Example 11 of application EP-1170288, 6-chloro-5-fluoro-N-[4-methoxy-3-(4-methyl-1-piperazinyl)phenyl]-1-indolinecarboxamide] | +15.1 ± 12.3 %AbC | +19.5 ± 4.9 %AbC | no change | very modest increase | very modest increase | +39.8 ± 6.7 %AbC | 39.8

From patent US6998403B2, “Benzoindoline compounds” (Les Laboratoires Servier, priority 2003, dated 2006)
